From article PMC6302903, “Protein and Chemical Determinants of BL-1249 Action and Selectivity for K2P Channels” (ACS Chemical Neuroscience, 2018)

Molecular target: TREK-1/AAK_T (Mus musculus, UniProt P97438)
Test: TEVC of C-terminal tail swap chimera TREK-1/AAK_T
Type: cell-based
Details: Xenopus oocytes
Description: Given the importance of the C-terminal tail for the BL-1249 response and the fact that the C-terminal tails of K2P2.1(TREK-1) and K2P4.1(TRAAK) vary substantially (17.6% sequence similarity, 13.5% identity), we wondered if these differences could contribute to the different potencies observed in K2P2.1(TREK-1) and K2P4.1(TRAAK) BL-1249 responses. To test this possibility, we made chimeras that swapped the C-terminal tail between K2P2.1(TREK-1) and K2P4.1(TRAAK), TREK-1/AAK_T and TRAAK/EK_T. […] Despite this modest change, it is clear that the C-terminal tail alone is not sufficient to endow the K2P4.1(TRAAK) core with a K2P2.1(TREK-1)-like BL-1249 response. […]
Xenopus laevis oocytes were harvested in accordance with UCSF IACUC protocol AN129690 and digested in calcium-free ND-96 (96 mM NaCl, 2 mM KCl, 3.8 mM MgCl2) immediately following harvest, as previously described.[6],[10] […] Defolliculated stage V–VI oocytes were injected with 0.2–6.0 ng of mRNA in 50 nL, and currents were recorded 24–48 h after injection. mRNA was synthesized from plasmid DNA using mMessage mMachine Kit (T7 promoter, Ambion, Life Technologies) and purified using RNEasy Kit (Qiagen). […] Once stabilized basal currents were recorded, compounds were perfused at various concentrations in standard ND96 and currents were allowed to increase to stabilization before recording final current. […]

TREK-1/AAK_T, sequence (P97438 1-292 isoform P97438-2 limits assumed): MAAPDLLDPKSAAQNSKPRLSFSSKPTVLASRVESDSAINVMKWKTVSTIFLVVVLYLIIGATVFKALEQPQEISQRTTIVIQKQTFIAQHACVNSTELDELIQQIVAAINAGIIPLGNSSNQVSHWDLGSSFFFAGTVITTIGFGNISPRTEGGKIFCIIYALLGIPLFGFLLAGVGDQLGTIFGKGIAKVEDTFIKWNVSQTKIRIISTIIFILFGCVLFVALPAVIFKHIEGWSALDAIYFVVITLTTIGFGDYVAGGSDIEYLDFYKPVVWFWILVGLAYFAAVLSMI

`c1ccc(-c2nnn[nH]2)c(Nc2cccc3c2CCCC3)c1` [BL-1249, (5,6,7,8-tetrahydro-naphthalen-1-yl)-[2-(1H-tetrazol-5-yl)-phenyl]-amine] gave an EC50 of 7.7 ± 0.6 µM.
